These compounds were tested against Aldo-keto reductase family 1 member B1 (Rattus norvegicus) (UniProt P07943) (assay: Inhibition of Rattus norvegicus albino (rat) kidney aldose reductase using D-L-glyceraldehyde as substrate assessed as decrease in NADPH concentration at 3.3 x 10^-6 M after 5 min by spectrophotometric analysis).
`C=C(NC(C)=O)C(=O)N1CCCCC1` was tested, and the inhibition was 3.4%. For `C=C(NC(C)=O)C(=O)NCc1ccccc1Cl`, the inhibition was 7.26%. With `C=C(NC(C)=O)C(=O)NC(C)C` the inhibition was 3.77%. `C=C(NC(C)=O)C(=O)NCc1ccccc1` was tested, and the inhibition was 2.48%. Compound `C=C(NC(C)=O)C(=O)NCc1ccc(Cl)cc1` has an inhibition of 2.3%. `C=C(NC(C)=O)C(=O)NCCC(C)C` gave an inhibition of 4.13%. In the case of `C=C(NC(C)=O)C(=O)Nc1nnc(CC)s1`, the inhibition was 4.5%. `C=C(NC(C)=O)C(=O)NC(C)CC` (stereo not given) showed an inhibition of 0%. `C=C(NC(C)=O)C(=O)NC` showed an inhibition of 9.46%. With `C=C(NC(C)=O)C(=O)N1CCCC1` the inhibition was 0%. With `C=C(NC(C)=O)C(=O)NCC` the inhibition was 13.1%. For `C=C(NC(C)=O)C(=O)NCc1ccccc1OC`, the inhibition was 0%. `C=C(NC(C)=O)C(=O)NCCC` showed an inhibition of 4.32%. `C=C(NC(C)=O)C(=O)NCCCCl` showed an inhibition of 19.6%. `C=C(NC(C)=O)C(=O)NC(C)(C)CC` gave an inhibition of 3.22%.

Source: ChEMBL document CHEMBL3045691, “Evaluation of rat kidney aldose reductase inhibitory activity of some N-acetyl dehydroalanine derivatives” (Med Chem Res, 2011)
